In patent US20230036911A1, “CULTURE SYSTEMS FOR THE EFFICIENT PRODUCTION OF GENE TRANSFER VECTORS” (Greffex, Inc., priority 2019, published 2023):

What was measured:
[1] = system: HEK293-type cells; assay: Cellular DNA content by Vybrant staining and flow cytometry of cultured HEK293-type cells; type: cell-based, human; details: ascorbic acid 5 µg/ml, 24 hrs of culture, versus culture in the absence of ascorbic acid
Method: HEK293-type cells were taken from a working cell bank and were cultured in an appropriate tissue culture vessel in an appropriate tissue culture medium both known by a person skilled in the art. They were expanded at appropriate conditions, such 37° C., 5% CO2. Cell growth and density was monitored daily. One day after cellular confluency was reached the cells were harvested by methods known by a person skilled in the art. The harvested HEK293-type cells were diluted in tissue culture medium and reseeded in an appropriate tissue culture vessel in and appropriate tissue culture medium. To one set of HEK293-type cells ascorbic acid was added at a final concentration of 5 µg/ml. After 24 hrs of culture, the cells were harvested and stained for DNA content by Vybrant (Invitrogen) following the manufacturers protocols. The cells were analyzed by fluorescence on a fluorescence activate cell analyzer (Beckman-Coulter Cytomics FC500).

[2] = system: HEK293-type cells; assay: Production (encapsidation) of the fully deleted helper virus independent Adenoviral vector fdhiAdGFP, read out as GFP-expressing cells after infection with supernatant; type: cell-based, human
Excerpt: In the present example, the use of ascorbic acid composition exemplified by its used for the production of DNA virus, such as, but not limited to, a fully deleted helper virus independent Adenoviral vector. The vector production systems is comprised of three components (as exemplified in FIG. 1): (i) The GreVac module is packaged into the vector. It carries an expression cassette for a transgene, such as the green fluorescent protein, (cytomegalovirus immediate early promotor/enhancer / transgene / human growth hormone poly-adenylation sequence) flanked by ITRs and Ψ sequences, and is called fdhiAdGFP. […]
HEK293-type cells were taken from the working cell bank and were cultured in an appropriate tissue culture vessel in an appropriate tissue culture medium both known by someone experienced in the art. […] Cell growth and density were monitored daily by light microscopy. […]
To measure the efficiency of encapsidation, HEK293-type cells in culture were infected with defined volumes of the Adenoviral vector containing supernatants. […] Then they were harvested and examined for the extent of green fluorescence on a fluorescence activate cell analyzer (Beckman-Coulter Cytomics FC500) as an indicator of the number of infectious adenoviral particles released from the production cells.

Compound: O=C1O[C@H]([C@@H](O)CO)C(O)=C1O [ascorbic acid]
- levels of DNA content in cells [1]: increased levels of DNA
- percentage of cells in the S and G2 stages of the cell cycle [1]: a larger percentage of cells had entered the S and G2 stages of the cell cycle
- rate of encapsidation of a gene transfer vector ([2]; ascorbic acid added to production cells, conclusion from the studies): increased the rate of encapsidation
- number of infected (GFP-expressing) cells after infection with Adenoviral vector containing supernatant ([2]; production cells with ascorbic acid 5 µg/ml, 5 days of production, transduced cells read after 2 days, versus no ascorbic acid): significantly larger number of infected cells
